{"source": "patent US20030022872A1", "about": "“Vitamin d derivatives having substituents at the 2 alpha-position” (priority 2000, published 2003)", "target": "T1, bovine thymus vitamin D receptor (VDR) (Bos taurus, UniProt Q28037)", "T1 sequence (Q28037 1-426)": "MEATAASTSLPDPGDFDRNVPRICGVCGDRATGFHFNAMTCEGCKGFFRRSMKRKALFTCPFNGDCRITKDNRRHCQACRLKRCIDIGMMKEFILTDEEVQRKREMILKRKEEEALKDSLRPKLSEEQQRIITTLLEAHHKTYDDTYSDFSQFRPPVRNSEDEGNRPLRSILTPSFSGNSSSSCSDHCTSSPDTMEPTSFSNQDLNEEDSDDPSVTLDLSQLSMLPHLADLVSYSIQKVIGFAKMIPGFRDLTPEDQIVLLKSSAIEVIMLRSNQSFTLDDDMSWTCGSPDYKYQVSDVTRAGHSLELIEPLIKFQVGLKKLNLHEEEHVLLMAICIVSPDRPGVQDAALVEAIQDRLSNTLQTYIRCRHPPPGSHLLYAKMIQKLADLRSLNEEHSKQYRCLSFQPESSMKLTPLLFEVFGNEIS", "conditions": "relative value with 1α,25-dihydroxyvitamin D3 taken as 100; ratio of concentrations inhibiting 50% of [3H]-1α,25-dihydroxyvitamin D3 binding (0.1 nM tracer, overnight at 4° C.)", "description": "Each of the resultant supernatants (500 μl) was mixed with ACS-II (9.5 ml) ([sequence], England) for radioactivity measurement.\nX: relative VDR binding property of the vitamin D derivative of the present invention"}
{"substance": "(5Z,7E)-(1S,2S,3R,20R)-2-(3-hydroxypropoxy)-9,10-seco-5,7,10(19)-cholestatriene-1,3,25-triol [Compound 16]", "values": [{"measurement": "relative VDR binding property X=(y/x)×100", "value": 180}]}
